# US11701358B2, “Methods of inhibiting serum glucocorticoid induced kinase 1 (SGKI) as a treatment for salt and water balance diseases” (Indiana University Research and Technology Corporation, priority 2017, dated 2023)
# Entries after “also recorded” stand apart in the source; their conditions may differ.
# Tests used:
# [1] = tested on: Wpk rat model (TMEM67-/-) of hydrocephalus; assay: Head dimensions in homozygous Wpk rat model of hydrocephalus; format: in vivo; conditions: homozygous Wpk rats
# Protocol: The effectiveness of SI 113 was tested in a genetic model of hydrocephalus, the Wpk rat model. In this model, the homozygous animals (TMEM67−/−) carry a single point mutation in TMEM67, one of a complex of proteins involved in the formation of the primary cilium. The homozygous affected animals have severe hydrocephalus and renal cystic disease. They typically survive for 18-21 days after birth, and the developing hydrocephalus can be monitored by measuring the head size in a manner analogous to measuring head sizes in human children.
# In FIG. 1, the head sizes in both the horizontal and vertical dimensions are shown.
# [2] = tested on: PCP-R porcine choroid plexus cell line; assay: Short-circuit current, TRPV4 agonist-stimulated transepithelial ion transport in PCP-R cells; format: cell-based; conditions: PCP-R cells in Ussing chamber, pretreatment at t=-10 minutes, agonist at t=0
# Protocol: PCP-R (porcine choroid plexus, high resistance) cell line was grown to confluence on permeable Transwell supports. The PCP-R cell line is grown in tissue culture media consisting of Dulbecco's Minimal Essential media (DMEM) supplemented with 10% fetal bovine serum and penicillin (100 U/ml) and streptomycin ([…]). Cultured cells in both flasks and on Transwells had the media changed thrice weekly. After attaining a high resistance phenotype (days 10-12 after seeding on the Transwells), the cultures were removed from the plastic supports and mounted in an Ussing chamber for electrophysiological measurements (short-circuit current (SCC)) of net transepithelial ion transport. A negative deflection is indicative of anion absorption (CSF to blood) and/or cation secretion (blood to CSF). GSK1016797 is an agonist of TRPV4, an osmo- and mechano-sensitive channel which, when stimulated, allows Ca^2+ to enter the cells. The increased intracellular Ca^2+ secondarily stimulates Ca^2+-sensitive channels. In the case of the PCP-R cells, this process stimulates Ca^2+-sensitive K^+ channels causing the secretion of K^+ and, secondarily, water into the cerebrospinal fluid. […] All cultures were stimulated with GSK1016797 at time t=0.
# [3] = tested on: epithelial sodium channel (ENaC); assay: Short-circuit current, basal ENaC activity in mCCD cells; format: cell-based, mouse; conditions: mCCD cell monolayer, Ussing chamber
# Text: The mouse cortical collecting duct (mCCD) cell line is a continuous, high resistance cell line that has the characteristics of the principal cells that line the kidney distal tubules. In this segment of the tubules, a transport protein, the epithelial sodium channel (ENaC), is responsible for the reabsorption of sodium from the kidney filtrate and the return of this ion to the bloodstream. As the concentration of sodium increases in the blood, the increased osmotic concentration will cause a compensatory movement of water from cells all over the body into the blood and an increase in blood volume and blood pressure. ENaC is an important transport protein and its function plays a major role in the regulation of whole body salt and water balance. Increases in the activity of ENaC can cause hypertension and many hypertension medications target the intracellular signaling pathways that culminate in the activation of ENaC. For example, ENaC is inhibited by the diuretic, amiloride.
# The mCCD cell line was grown in tissue culture media consisting of Dulbecco's Minimal Essential media (DMEM):Hams F12 supplemented with 5% fetal bovine serum and penicillin (100 U/ml) and streptomycin ([…]). Cultured cells in both flasks and on Transwells had the media changed thrice weekly. […] In the current Example, the basal activity of ENaC in the cells is the parameter that is monitored.
# [4] = tested on: heterozygous Wpk rat model of hydrocephalus; assay: MRI of lateral ventricular volumes in heterozygous Wpk rat model; format: in vivo; conditions: heterozygous Wpk rats, 8 mg/kg BW i.p. daily for 8 days, versus vehicle, P=0.039 Mann-Whitney
# Protocol: FIG. 4 depicts MRI quantification of the effects of SI113 on hydrocephalus in the heterozygous Wpk rat model. The bars represent the difference in volumes of the lateral ventricles measured at postnatal (P) day 7 and P15. The volumes were measured by MRI before treatment with vehicle or SI 113 (8 mg/kg BW; i.p. daily) and again after 8 days of treatment. The difference in the volume for each of the animals was calculated and the averages ±SEM are shown in the bar graph. The number of animals in each study is noted as n. Approximately equal numbers of male and female animals were used.
# The Wpk rat model is unique in that the genetic defect causes a severe hydrocephalus in the homozygous affected animals (see FIG. 1) and a mild hydrocephalus in the heterozygous animals (see FIG. 4). The heterozygous animals live for at least year. […] In this model the hydrocephalus is not severe enough to change head dimensions so the effect of the SI113 on the hydrocephalus was measured using MRI. […] Volumes of interest on lateral ventricles were determined from threshold based image segmentation of native cerebrospinal fluid contrast, and images were quantified for lateral ventricular volumes using Analyze 12.0. The MRIs were conducted on each animal on day 7 and day 15 and the differences in lateral ventricular volumes were calculated (FIG. 4).
SMILES,head dimensions of treated hydrocephalic animals compared with wild-type animals ([1]; after treatment post-natal day 7 to day 15),"head dimensions (horizontal and vertical) of hydrocephalic animals ([1]; treatment post-natal day 7 to day 15, versus vehicle, *p=0.009, # p=0.03, 1-tailed t-test)",response (short-circuit current) to TRPV4 agonist GSK1016797 [2],"short-circuit current (SCC), transepithelial sodium transport via ENaC [3]","hydrocephalus, difference in lateral ventricular volumes between P7 and P15 by MRI [4]"
"OCCNc1nc(NCCc2ccccc2)c2cnn(/C=C/c3ccccc3)c2n1 [SI 113, 2-({1-(2-phenylethenyl)-4-[(2-phenylethy)amino]-1H-pyrazolo[3,4-d]pyrimidin-6-yl}amino)ethanol]",not statistically different than the wild-type animals,significantly decreased the head dimensions,completely blocked,caused a decrease in the SCC,statistically significant difference; also recorded: effectively decreased the hydrocephalus
"N=C(N)NC(=O)c1nc(Cl)c(N)nc1N [amiloride, reference compound]",–,–,–,strongly inhibited,–
